By pIC50 is commonly meant the negative decadic logarithm of the IC50, by convention in mol/L. Low values mean a large IC50, high ones a small IC50. What is called inhibition is the percentage by which the read-out fell short of the control.

What all share (type): in vitro ADME
One series deals with T1, CYP2C19 (Homo sapiens, UniProt P33261).
T1 construct: co-incubation ticagrelor-O-Glu with selective P450 probe substrates in HLM; tissue XenoTech LLC; host or cells: pooled human liver microsomes
T1 sequence (P33261 whole entry): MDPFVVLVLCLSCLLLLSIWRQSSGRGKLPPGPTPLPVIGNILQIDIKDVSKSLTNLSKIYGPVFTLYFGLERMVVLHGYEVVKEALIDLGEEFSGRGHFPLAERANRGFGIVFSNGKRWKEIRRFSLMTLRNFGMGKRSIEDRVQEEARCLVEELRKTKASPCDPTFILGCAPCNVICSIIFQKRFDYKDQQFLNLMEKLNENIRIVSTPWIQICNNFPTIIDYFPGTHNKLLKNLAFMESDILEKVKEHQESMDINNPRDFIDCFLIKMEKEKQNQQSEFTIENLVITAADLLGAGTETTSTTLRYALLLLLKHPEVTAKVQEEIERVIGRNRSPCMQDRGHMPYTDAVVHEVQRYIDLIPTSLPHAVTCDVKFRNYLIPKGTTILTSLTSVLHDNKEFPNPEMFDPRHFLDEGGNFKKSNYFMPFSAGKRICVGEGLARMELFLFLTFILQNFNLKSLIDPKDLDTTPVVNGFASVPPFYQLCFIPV
In words: CYP2C19 inhibition in HLM ([S]-mephenytoin 4′-hydroxylase). On the procedure: (§1) The potential inhibitory effects of ticagrelor-O-Glu on the activities of major CYPs, i.e., CYP2B6, CYP2C8, CYP2C9, CYP2C19, CYP2D6, and CYP3A4, were evaluated by co-incubation ticagrelor-O-Glu with selective P450 probe substrates in HLM. Each incubation mixture containing 0.2 mg/ml HLM, ticagrelor-O-Glu and respective substrate (the final substrate concentrations are close to or less than the Km values: 150 μM bupropion, 1.26 μM amodiaquine, 10 μM diclofenac, 20 μM mephenytoin, 20 μM dextromethorphan and 80 μM testosterone (in house data)) in potassium phosphate buffer (100 mM, pH 7.4) was pre-incubated at 37°C for 5 min. Then, NADPH (10 mM) was added to initiate the reaction. The final volume of the incubation mixture was 100 μl. After incubation at 37°C for specific time points, the reaction was terminated by the addition of 200 μl of ice-cold methanol solution with internal standards (diazepam and furafylline). Preliminary screening experiments with selected concentrations of ticagrelor-O-Glu (0, 1, 10, or 100 μM of the final concentration) were carried out to determine the inhibition potency. For those that produced approximately 50% inhibition of CYPs enzyme activities at a ticagrelor-O-Glu concentration between 1 and 100 μM, IC50 was further determined with various concentrations of ticagrelor-O-Glu (0, 1, 5, 10, 20, 50, and 100 μM). All the experiments were performed in triplicates. The supernatant was obtained after centrifugation at 14,000 rpm for 10 min and injected into LC-MS/MS for the analysis of the respective metabolites. The formation of respective metabolites was determined to reflect P450 isoform activities. The metabolites quantified for CYP2B6, CYP2C8, CYP2C9, CYP2C19, CYP2D6, and CYP3A4 were hydroxy bupropion, N-Desethyl amodiaquine, 4′-hydroxylation diclofenac, S-4-hydroxy mephenytoin, dextrorphan and 6β-hydroxy testosterone, respectively.
(§2) The percent inhibition relative to the control was calculated to indicate the UGTs or CYPs inhibition. […]

The target in a further series is T2, CYP2C8 (Homo sapiens, UniProt P10632).
T2 construct: co-incubation ticagrelor-O-Glu with selective P450 probe substrates in HLM; tissue XenoTech LLC; host or cells: pooled human liver microsomes
T2 sequence (P10632 whole entry): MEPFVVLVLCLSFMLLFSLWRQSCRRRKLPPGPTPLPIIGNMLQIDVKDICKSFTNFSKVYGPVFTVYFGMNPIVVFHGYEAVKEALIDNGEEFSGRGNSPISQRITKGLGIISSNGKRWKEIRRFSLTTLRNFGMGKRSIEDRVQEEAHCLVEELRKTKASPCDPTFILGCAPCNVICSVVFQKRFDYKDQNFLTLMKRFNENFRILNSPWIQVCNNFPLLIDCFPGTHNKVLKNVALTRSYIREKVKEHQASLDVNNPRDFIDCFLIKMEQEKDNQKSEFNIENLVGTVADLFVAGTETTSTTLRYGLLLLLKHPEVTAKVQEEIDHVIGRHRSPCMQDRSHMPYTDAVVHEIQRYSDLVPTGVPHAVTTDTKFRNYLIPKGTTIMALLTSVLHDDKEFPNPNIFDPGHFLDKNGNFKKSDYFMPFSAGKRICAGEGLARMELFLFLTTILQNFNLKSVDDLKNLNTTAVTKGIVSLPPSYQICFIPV
Put plainly: CYP2C8 inhibition in HLM (amodiaquine N-deethylase). Conditions: HLM 0.2 mg/ml. As for the experimental part: as §1, with “Preliminary screening experiments with selected concentrations of ticagrelor-O-Glu (0, 1, 10, or 100 μM of the final concentration) were carried out to determine the inhibition potency. For those that produced approximately 50% inhibition of CYPs enzyme activities at a ticagrelor-O-Glu concentration between 1 and 100 μM, IC50 was further determined with various concentrations of ticagrelor-O-Glu (0, 1, 5, 10, 20, 50, and 100 μM). All the experiments were performed in triplicates. The supernatant was obtained after centrifugation at 14,000 rpm for 10 min and injected into LC-MS/MS for the analysis of the respective metabolites.” left out
as §2

The next series deals with T3, CYP2D6 (Homo sapiens, UniProt P10635).
T3 construct: co-incubation ticagrelor-O-Glu with selective P450 probe substrates in HLM; tissue XenoTech LLC; host or cells: pooled human liver microsomes
T3 sequence (P10635 whole entry): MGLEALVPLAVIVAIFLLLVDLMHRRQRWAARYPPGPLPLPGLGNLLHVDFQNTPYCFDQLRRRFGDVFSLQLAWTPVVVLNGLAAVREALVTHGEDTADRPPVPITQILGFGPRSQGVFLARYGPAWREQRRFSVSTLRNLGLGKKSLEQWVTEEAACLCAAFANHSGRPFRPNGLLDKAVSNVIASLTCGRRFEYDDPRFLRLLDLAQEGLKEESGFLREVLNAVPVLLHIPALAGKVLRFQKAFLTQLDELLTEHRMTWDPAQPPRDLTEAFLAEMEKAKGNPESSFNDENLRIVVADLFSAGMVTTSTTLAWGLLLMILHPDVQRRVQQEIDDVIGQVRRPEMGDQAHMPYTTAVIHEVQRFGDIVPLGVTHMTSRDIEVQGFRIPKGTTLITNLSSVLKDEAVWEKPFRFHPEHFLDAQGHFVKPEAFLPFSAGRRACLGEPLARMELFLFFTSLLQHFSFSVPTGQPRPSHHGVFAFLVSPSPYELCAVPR
In words: CYP2D6 inhibition in HLM (dextromethorphan O-demethylase). To be noted: HLM 0.2 mg/ml. On the procedure:
as §1, with “Preliminary screening experiments with selected concentrations of ticagrelor-O-Glu (0, 1, 10, or 100 μM of the final concentration) were carried out to determine the inhibition potency. For those that produced approximately 50% inhibition of CYPs enzyme activities at a ticagrelor-O-Glu concentration between 1 and 100 μM, IC50 was further determined with various concentrations of ticagrelor-O-Glu (0, 1, 5, 10, 20, 50, and 100 μM). All the experiments were performed in triplicates. The supernatant was obtained after centrifugation at 14,000 rpm for 10 min and injected into LC-MS/MS for the analysis of the respective metabolites.” left out
as §2

The target in the next series is T4, CYP2C9 (Homo sapiens, UniProt P11712).
T4 construct: co-incubation ticagrelor-O-Glu with selective P450 probe substrates in HLM; tissue XenoTech LLC; host or cells: pooled human liver microsomes
T4 sequence (P11712 whole entry): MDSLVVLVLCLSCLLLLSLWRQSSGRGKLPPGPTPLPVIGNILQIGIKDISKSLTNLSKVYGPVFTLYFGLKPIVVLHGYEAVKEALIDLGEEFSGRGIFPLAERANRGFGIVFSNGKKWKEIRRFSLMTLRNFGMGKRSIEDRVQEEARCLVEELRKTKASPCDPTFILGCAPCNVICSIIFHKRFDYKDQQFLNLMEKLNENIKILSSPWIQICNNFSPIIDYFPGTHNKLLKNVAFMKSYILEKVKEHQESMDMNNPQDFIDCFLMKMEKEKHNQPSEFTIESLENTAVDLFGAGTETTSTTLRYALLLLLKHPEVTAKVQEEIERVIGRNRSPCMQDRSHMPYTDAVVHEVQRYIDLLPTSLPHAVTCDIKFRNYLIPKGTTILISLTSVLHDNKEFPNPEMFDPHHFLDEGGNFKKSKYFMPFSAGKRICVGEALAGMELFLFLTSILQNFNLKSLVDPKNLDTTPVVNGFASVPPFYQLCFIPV
Put plainly: CYP2C9 inhibition in HLM (diclofenac 4′-hydroxylase). As for the experimental part:
as §1, §2

Another series has as its target T5, UGT1A6 (Homo sapiens, UniProt P19224).
T5 sequence (P19224 27-532): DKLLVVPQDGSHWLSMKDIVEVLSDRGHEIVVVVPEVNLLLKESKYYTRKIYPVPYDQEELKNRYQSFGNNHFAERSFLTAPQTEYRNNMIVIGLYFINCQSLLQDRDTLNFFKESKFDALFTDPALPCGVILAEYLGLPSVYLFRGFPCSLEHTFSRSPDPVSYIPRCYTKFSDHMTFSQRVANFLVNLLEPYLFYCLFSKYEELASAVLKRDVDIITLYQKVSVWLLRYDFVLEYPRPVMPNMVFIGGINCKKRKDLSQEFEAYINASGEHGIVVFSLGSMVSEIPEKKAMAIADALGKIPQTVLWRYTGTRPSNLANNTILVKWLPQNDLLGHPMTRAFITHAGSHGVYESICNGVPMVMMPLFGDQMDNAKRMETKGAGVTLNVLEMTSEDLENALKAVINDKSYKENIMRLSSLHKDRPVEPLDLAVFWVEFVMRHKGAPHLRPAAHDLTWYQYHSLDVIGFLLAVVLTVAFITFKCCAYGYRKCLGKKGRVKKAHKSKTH
Put plainly: Ticagrelor glucuronidation screen, recombinant human UGT1A6. Set-up: purchased BD Gentest; host or cells: baculovirus-infected insect cells. Conditions: 10 μM ticagrelor. On the procedure: Ticagrelor glucuronidation was investigated in an in vitro incubation system by using HLM, HIM, and recombinant human UGTs. The incubation system consisted of enzyme sources (HLM, HIM, or human recombinant UGTs), various concentrations of ticagrelor (dissolved in 50% methanol, 1% v/v, 1, 2, 5, 10, 20, 50, 100, 200, 500 μM of final concentration), alamethicin (50 μg/mg protein), 5 mM MgCl2, 100 mM tris-HCL buffer (pH 7.4), and 5 mM UDPGA in a total volume of 100 μl. Alamethicin is a pore-forming polypeptide used to activate UGTs in HLM and HIM ([Fisher et al., 2000]). Preliminary studies were conducted to determine the optimal protein concentrations and incubation times. Linear conditions of ticagrelor-O-Glu formation from ticagrelor, i.e., HLM, 0.2 mg of protein/ml and 60 min, HIM, 0.2 mg of protein/ml and 60 min, and recombinant human UGTs, 0.2 mg of protein/ml and 60 min were selected. The incubation mixture without UDPGA was placed on ice for 15 min to activate UGT by alamethicin. After pre-incubation for 5 min at 37°C, the reactions were started by the addition of UDPGA. After another 60 min of incubation at 37°C, the reaction was terminated by adding 100 μl of acetonitrile containing internal standard (diazepam). The mixture vortexed for 2 min and then centrifuged at 14,000 rpm for 10 min at 4°C. […]

Each structure is given as a SMILES string. pIC50: −log10 of the molar value. Some results are limits rather than exact numbers.

Regarding `CCCSc1nc(N[C@@H]2C[C@H]2c2ccc(F)c(F)c2)c2nnn([C@@H]3C[C@H](OCCO[C@@H]4O[C@H](C(=O)O)[C@@H](O)[C@H](O)[C@H]4O)[C@@H](O)[C@H]3O)c2n1` [Ticagrelor-O-Glu, ticagrelor-O-glucuronide], the pIC50 against CYP2C19 (CYP2C19, [S]-mephenytoin 4′-hydroxylase, HLM 0.2 mg/ml) is 4.73; at CYP2C8 it was below 4.00; against CYP2D6 it was below 4.00; at CYP2C9 (CYP2C9, diclofenac 4′-hydroxylase, HLM 0.2 mg/ml) it was 4.70. Moreover, the inhibition at 10 μM was found to be 32.7% on CYP2C19 (human, human liver microsomes, pH 7.4, probe mephenytoin (20 μM), S-4-hydroxy mephenytoin formation, HLM, 10 μM ticagrelor-O-Glu, read-out: inhibition of CYP2C19 enzyme activity) and 44% at CYP2C9 (human, human liver microsomes, pH 7.4, probe diclofenac (10 μM), 4′-hydroxylation diclofenac formation, HLM, 10 μM ticagrelor-O-Glu, read-out: inhibition of CYP2C9 enzyme activity). Also, the inhibition at 100 µM was 83.6% on CYP2C19 (human, human liver microsomes, pH 7.4, probe mephenytoin (20 μM), S-4-hydroxy mephenytoin formation, HLM, 100 μM ticagrelor-O-Glu, read-out: inhibition of CYP2C19 enzyme activity) and 73.5% on CYP2C9 (human, human liver microsomes, pH 7.4, probe diclofenac (10 μM), 4′-hydroxylation diclofenac formation, HLM, 100 μM ticagrelor-O-Glu, read-out: inhibition of CYP2C9 enzyme activity).
Regarding `CCCSc1nc(N[C@@H]2C[C@H]2c2ccc(F)c(F)c2)c2nnn([C@@H]3C[C@H](OCCO)[C@@H](O)[C@H]3O)c2n1` [Ticagrelor], the “glucuronidation activity for ticagrelor” value at UGT1A6 is listed as “no glucuronidation activities”.

The record behind these values is PMC8552062, “Contributions of UDP-Glucuronosyltransferases to Human Hepatic and Intestinal Metabolism of Ticagrelor and Inhibition of UGTs and Cytochrome P450 Enzymes by Ticagrelor and its Glucuronidated Metabolite” (Frontiers in Pharmacology, 2021).
